# Measured values taken from paper PMC10744269, “Frentizole, a Nontoxic Immunosuppressive Drug, and Its Analogs Display Antitumor Activity via Tubulin Inhibition” (International Journal of Molecular Sciences, 2023).
# Experiments:
# [1] = tested on: nontumorigenic cell line HEK-293 (human embryonic kidney cells); assay: MTT antiproliferative assay, HEK-293; format: cell-based; conditions: HEK293, 72 h after drug treatment, threshold 10 μM
# Procedure: (§1) The cell proliferation inhibitory activity of frentizole and the synthesized analogs 2–10 against representative human cancer cell lines was assayed using the MTT method (Table 1). […] For those compounds inhibiting cell proliferation by more than 40% with respect to the untreated controls at the threshold concentration, the IC50 values were calculated by measuring the proliferation inhibition in a range of concentrations from 100 to 0.001 μM and adjusting the resulting curves to sigmoidal dose–response curves. The selected cell lines were HeLa (cervix epithelioid carcinoma cells), one of the most frequent kinds of cancer, with good sensitivity against antimitotic agents, and the glioblastoma cell lines U87MG and A172. To study the selectivity of the compounds toward cancer cells versus nontumor cells, the compounds were also evaluated against the nontumorigenic cell line HEK-293 (human embryonic kidney cells) and the murine macrophage cell line J774. Sulfonamide ABT-751, as a representative of the colchicine-site ligands, and the first-line drug for the treatment of glioblastoma multiforme temozolomide (TMZ) were used as reference compounds.
# (§2) The cell lines were from ATTC (Manassas, VA, USA). HeLa (human cervix epithelioid carcinoma), U87 MG (human glioblastoma), A172 (human glioblastoma), and HEK-293 (human embryonic kidney) were grown in Dulbecco’s modified Eagle’s medium (DMEM, Gibco, Waltham, MA, USA), supplemented with 10% (v/v) heat-inactivated fetal bovine serum (HIFBS, Sigma-Aldrich, St. Louis, MO, USA), 2 mM L-glutamine, 100 μg/mL streptomycin, and 100 units/mL penicillin (Gibco, Waltham, MA, USA) at 37 °C in humidified 95% air and 5% CO2. The cells were periodically tested for Mycoplasma infection using MycoAlert kit (Lonza, Norwest, Australia), and only mycoplasma-free cells were employed in the experiments.
# (§3) The effect of the compounds on the proliferation of human tumor cell lines was determined as previously described using the MTT reagent 3-[4,5-dimethylthiazol-2-yl]-2,5-diphenyltetrazolium bromide, MTT Thiazolyl Blue Tetrazolium Bromide, Sigma-Aldrich, St. Louis, MO, USA) dissolved in PBS at 5 mg/mL, according to the manufacturer’s instructions. The cells were incubated in 96-well plates (100 μL/well), in complete DMEM or RPMI 1640 medium (see above), at 37 °C and 5% CO2 atmosphere for 24 h to allow for cell attachment to the plate at the following concentrations: 30,000 cells/mL (U87MG, A172, J774, and HEK-293 cells) or 15,000 cells/mL (HeLa cells). Then, every compound was added (10 μL/well) to a final concentration of 10 μM. Untreated cells were used as negative controls. The antiproliferative activity of the compounds was measured 72 h after drug exposure using the MTT assay. The IC50 value (the drug concentration required to inhibit 50% of the cell growth in respect the untreated control) was determined for those compounds showing antiproliferative effects in the initial screening at 10 μM. For this purpose, the compounds were used at different concentrations ranging from 10^−10 to […]. Measurements were performed in triplicate and each experiment was repeated three times. The IC50 values were determined using Origin software (OriginLab, Washington, DC, USA).
# [2] = tested on: murine macrophage cell line J774; assay: MTT antiproliferative assay, J774; format: cell-based; conditions: Mus musculus, 72 h after drug treatment, threshold 10 μM, read-out: IC50 J-774
# Procedure: as §1, §3
# [3] = tested on: U87 MG (human glioblastoma); assay: MTT antiproliferative assay, U-87 MG; format: cell-based; conditions: 72 h after drug treatment, threshold 10 μM
# Procedure: as §1, §2, §3
# [4] = tested on: A172 (human glioblastoma); assay: MTT antiproliferative assay, A-172; format: cell-based; conditions: 72 h after drug treatment, threshold 10 μM
# Procedure: as §1, §2, §3
# [5] = tested on: HeLa (cervix epithelioid carcinoma cells); assay: MTT antiproliferative assay, HeLa; format: cell-based, human; conditions: Homo sapiens, HeLa, 72 h after drug treatment, threshold 10 μM
# Procedure: as §1, §2, §3
IC50 [3] [µM],melting point [°C],IC50 [4] [µM],IC50 [5] [µM],SMILES,IC50 [1] [µM],IC50 [2] [µM]
> 10,222 to 224,> 10,> 10,"Cc1ccc2nc(NC(=O)c3ccccc3)sc2c1 [Compound 3a, N-(6-methylbenzo[d]thiazol-2-yl)benzamide]",> 10,> 10
> 10,210,> 10,> 10,"Cc1cc2nc(NC(=O)c3ccccc3)sc2cc1C [Compound 3c, N-(5,6-dimethylbenzo[d]thiazol-2-yl)benzamide]",5.68,7.73
> 10,231,> 10,> 10,"Cc1cc2nc(N(C)C(=O)c3ccccc3)sc2cc1C [Compound 3ca, N-(5,6-dimethylbenzo[d]thiazol-2-yl)-N-methylbenzamide]",> 10,> 10
> 10,,> 10,> 10,"COc1ccc2nc(NC(=O)c3ccccc3)sc2c1 [Compound 3e, N-(6-methoxybenzo[d]thiazol-2-yl)benzamide]",> 10,> 10
> 10,190 to 191,> 10,> 10,"Cc1ccc2nc(NC(=O)Cc3ccccc3)sc2c1 [Compound 4a, N-(6-methylbenzo[d]thiazol-2-yl)-2-phenylacetamide]",> 10,> 10
> 10,312 to 313,> 10,> 10,"CCNC(=O)Nc1nc2ccc(C)cc2s1 [Compound 5a, 1-Ethyl-3-(6-methylbenzo[d]thiazol-2-yl)urea]",> 10,> 10
> 10,,> 10,> 10,"CCNC(=O)Nc1nc2cc(C)c(C)cc2s1 [Compound 5c, 1-(5,6-Dimethylbenzo[d]thiazol-2-yl)-3-ethylurea]",> 10,> 10
> 10,,> 10,> 10,"CCNC(=O)Nc1nc2ccc(OC)cc2s1 [Compound 5e, 1-Ethyl-3-(6-methoxybenzo[d]thiazol-2-yl)urea]",> 10,> 10
> 10,327 to 329,> 10,> 10,"Cc1ccc2nc(NC(=O)Nc3ccccc3)sc2c1 [Compound 6a, 1-(6-Methylbenzo[d]thiazol-2-yl)-3-phenylurea]",> 10,1.97
> 10,,> 10,> 10,Cc1cc(Br)c2nc(NC(=O)Nc3ccccc3)sc2c1 [Compound 6b],> 10,> 10
> 10,> 290,> 10,> 10,"Cc1cc2nc(NC(=O)Nc3ccccc3)sc2cc1C [Compound 6c, 1-(5,6-Dimethylbenzo[d]thiazol-2-yl)-3-phenylurea]",> 10,0.27
> 10,,> 10,> 10,"Cc1cc(Br)c2nc(NC(=O)NCc3ccccc3)sc2c1 [Compound 7b, 1-Benzyl-3-(4-bromo-6-methylbenzo[d]thiazol-2-yl)urea]",> 10,> 10
,100,,,"Cc1cc(Br)c2c(c1)SC(NC(=O)Oc1ccccc1)N2C(=O)Oc1ccccc1 (stereo not drawn) [Compound 9b, Phenyl (4-bromo-6-methyl-N-phenoxycarbonylbenzo[d]thiazol-2-yl)carbamate]",,
> 10,254 to 255,> 10,> 10,"Cc1ccc2nc(NC(=O)OCc3ccccc3)sc2c1 [Compound 10a, Benzyl (6-methylbenzo[d]thiazol-2-yl)carbamate]",> 10,
> 10,,> 10,> 10,Cc1cc(Br)c2nc(NC(=O)OCc3ccccc3)sc2c1 [Compound 10b],> 10,> 10
